Reference: patent US20210145965A1, “METHOD OF USING CHECKPOINT KINASE INHIBITOR THERAPY TO MODULATE ANTI-TUMORAL RESPONSE AGAINST CANCER AND SENSITIZE GLIOMAS TO IMMUNOTHERAPY” (NORTHWESTERN UNIVERSITY, priority 2019, published 2021)

Assays:
[1] = tested on: GL261 cells; experiment: Percent viability of GL261 cells treated with TMZ or iCHEK1/2; assay type: cell-based, mouse
[2] = tested on: GL261 cells; experiment: Western blot of DNA damage in GL261 cells; assay type: cell-based, mouse; settings: 8 nM, 48 h of treatment, compared to TMZ or untreated GL261 cells
[3] = tested on: GL261 cells; experiment: Expression of MHC-I and PDL1 in GL261 cells; assay type: cell-based, mouse; settings: 8 nM, 3 cycles (48 h/cycle), compared to TMZ or untreated
[4] = tested on: GL261 intracranial gliomas; experiment: PD1+ T cells in brain and spleen of GL261 intracranial tumor bearing mice by flow cytometry; assay type: in vivo, C57BL/6 mice; settings: 10 mg/kg i.p. on 7th and 9th day, sacrificed on 13th day

Row | Structure (SMILES) | concentration leading to a decrease in viability of glioma cells ([1]; treatment for 72 h) [µM] | concentration at which viability of the GL261 cells started to be affected [1] | DNA damage signal (western blot) [2] | expression of MHC-I (both MHC class and PDL1) [3] | activated T-cells pool in the peripheral compartment (spleen) [4] | percentage of PD1+ T cells in the brain ([4]; compared to TMZ or vehicle)
1 | Cn1nnc2c(C(N)=O)ncn2c1=O [TMZ, temozolomide] | 500 | – | – | – | – | –
2 | COc1cccc(OCCCN)c1-c1cc(Nc2cnc(C#N)cn2)n[nH]1 [iCHEK1/2, Prexasertib] | – | less than 0.08 nM | intense signal of DNA damage | increased expression of MHC-I | no significant difference | decrease in the percentage of PD1+ T cells
